Experimental data: US20250361297A1, “ANTI- SIGLEC-15 BINDING MOLECULES AND METHODS OF USE” (ADAPTAM THERAPEUTICS, S.L., priority 2024, published 2025)
Where a SMILES comes first, the peptide text is derived from it. [ ]: non-standard residue; d: D form. The star is where a group is joined. Dolaproine = CO[C@@H]([C@@H]1CCCN1)[C@@H](C)C(=O)O; Dil = CC[C@H](C)[C@H](NC)[C@@H](CC(=O)O)OC; X1 = C[C@@H](N*)[C@@H](O)c1ccccc1; NMeV = CN[C@H](C(=O)O)C(C)C

What was measured:
human macrophages = experiment: Viability of payload-treated human macrophages (Calcein AM / Ethidium Homodimer-1); assay type: cell-based; conditions: free payload; 48-hour incubation; calcein-positive, Ethidium Homodimer-1 negative cells
Procedure: Macrophage differentiation from CD14+ monocytes: Human peripheral blood mononuclear cells (PBMCs) were isolated from blood donors, who provided informed consent, using density gradient centrifugation. Monocytes were then purified from PBMCs utilizing a CD14 selection kit (Stemcell) according to the manufacturer's instructions. The isolated monocytes were differentiated into macrophages by culturing in RPMI 1640 medium supplemented with 10% FBS and 100 ng/mL macrophage colony-stimulating factor (M-CSF) for 5 days.
Viability assay with Calcein AM: To prepare the viability assay with Calcein AM for flow cytometry, 5 μL of Calcein AM (Component A) and 20 μL of Ethidium Homodimer-1 (Component B) was added to 10 mL of DPBS. Cells were centrifuged at 450×G for 5 minutes to remove the culture medium, and 100-200 μL of the staining solution was added directly to the cells and incubated for 30 minutes at room temperature (20-25° C.). After the incubation, cells were centrifuged at 450×G for 5 minutes to remove the supernatant, and resuspended in 150 μL of DPBS. Cells were analyzed by flow cytometry.

[1] = tested on: osteoclast differentiation; experiment: Osteoclast differentiation in vitro (TRACP 5b in culture medium); assay type: cell-based; conditions: relative to baseline levels; culture medium at day 7 (FIG. 46)

Row | Compound | loss of cell viability of human macrophages (human macrophages) | effect on osteoclast differentiation (TRACP 5b) [1]
1 | CC[C@H](C)[C@@H]([C@@H](CC(=O)N1CCC[C@H]1[C@H](OC)[C@@H](C)C(=O)N[C@H](C)[C@@H](O)c1ccccc1)OC)N(C)C(=O)[C@@H](NC(=O)[C@@H](NC)C(C)C)C(C)C [MMAE, monomethylauristatin E] (H-[NMeV]V[Dil][Dolaproine]-X1) | at a lower concentration than Exatecan | –
2 | denosumab: control that reduced osteoclast differentiation [reference compound] | – | reduced differentiation
